Data reported in patent US20240010913A1, “RED FLUORESCENT SENSOR COMPOUNDS FOR THE DETECTION OF METAL IONS” (FEMTONICS KFT., priority 2020, published 2024).
Entries after “also recorded” stand apart in the source; their conditions may differ. Blank lines part the entries; values can stand above or below the molecule they belong to.

Legend:
[1] = cited from earlier work
[2] = Fluorescent spectra in the presence of various Zn ion concentration (Zn-titration); assay type: physicochemical; settings: 0.1 M HEPES buffer pH 7.4
Description: (§1) Fluorescent spectra were recorded on an FLS920 Fluorescence Spectrometer from Edinburgh Instrument. A quartz cuvette with 3 mL volume and 1 cm length was used. Absorption spectra were recorded on a ThermoFisher NanoDrop 1000 Spectrophotometer. The two-photon measurements were performed on the custom Femtonics Dobos Dual system using a water immersion lens, a Mai Tai High-Power laser operated at 50 mW. For processing the images, ImageJ software was used.
FIG. 1. Fluorescence spectra of compound 28 pH 7.4 (0.1 M) HEPES buffer containing different amounts of Zn^2+. Values are not normalized, spectra were recorded at the maximum excitation wavelength.
FIG. 5. Fluorescence spectra of the compound of 29 in 0.1 M HEPES buffer (pH 7.4) containing different amounts of Zn^2+.
FIG. 7. Fluorescence spectra of the compound of 31 in pH 7.4 (0.1 M) HEPES buffer containing different amounts of Zn^2+.
FIG. 9. Fluorescence spectra of the compound of 30 in pH 7.4 (0.1 M) HEPES buffer containing different amounts of Zn^2+ ion.

[3] = UV-VIS absorption spectra; assay type: physicochemical
Description: as §1

[4] = Ion screening (fluorescence), Zn2+; assay type: physicochemical; settings: for selectivity towards Zn ion: vs Ca2+, Mg2+, Na+, K+, Fe3+, Cu2+, Sn2+, Cd2+, Pb2+
[5] = Solubility of the product (qualitative); assay type: physicochemical
[6] = Aqueous solution: fluorescence and colour on addition of aqueous 1 mM ZnCl2; assay type: physicochemical; settings: for colour of the aqueous solution / fluorescence of the solution upon irradiation: upon addition of aqueous 1 mM ZnCl2; for fluorescence of the aqueous solution: without Zn
[7] = Ion screening (fluorescence), Cd2+; assay type: physicochemical
[8] = Ion screening (fluorescence), Ca2+; assay type: physicochemical
[9] = Ion screening (fluorescence), Sn2+; assay type: physicochemical
[10] = cited from earlier work; remark: listed apart in the source

Compound: COc1cc(NS(=O)(=O)c2ccc(C)cc2)c2ncccc2c1 [TSQ, 6-methoxy-(8-p-toluenesulfonamido)quinoline]
solubility / water-solubility [1]: poor water-

Compound: CCOC(=O)COc1cc(NS(=O)(=O)c2ccc(C)cc2)c2nc(C)ccc2c1 [Zinquin Ester]
solubility / water-solubility [1]: weak solubility; also recorded: excitation, poor water-solubility

Compound: O=C(O)CN(CC(=O)O)c1cccc2ccc(/C=C3\N=C(Nc4ccccc4)NC3=O)nc12 [compound 33, (Z)-2,2′-((2-((5-oxo-2-(phenylamino)-1,5-dihydro-4H-imidazol-4-ylidene)methyl)quinolin-8-yl)azanediyl)diacetic acid]
turn on in the presence of Zn2+ [4]: does not turn on
fluorescence with Ca2+ ion [8]: increased fluorescence intensity
turn on by Sn2+ [9]: turn on the sensor

Compound: Cc1cc(/C=N/c2cccc3cccnc23)c(O)c(CO)c1 [HQMP]
solubility / water-solubility [1]: Poor water-solubility

Compound: O=C(CNNC(=O)c1ccccc1)Nc1cccc2cccnc12 [QLNPY]
quenching ([10]; by PPi and S^2−): quenched by PPi
specificity / selectivity [10]: not selective for Cd^2+

Compound: Oc1cccc2cccnc12 [8-hydroxyquinoline]
specificity / selectivity [10]: low

Second part, led by results:

maximum emitted wavelength [2]: around 545 nm
UV spectra extends over [3]: over 500 nm
UV spectra maximum wavelength [3]: around 481 nm
solubility in DMSO [5]: Soluble
solubility in alcohols [5]: Soluble
solubility in water [5]: moderately soluble
Compound: CN(Cc1ccccn1)c1cccc2ccc(/C=C3\N=C(Nc4ccccc4)NC3=O)nc12 [compound 31, (Z)-5-((8-(methyl(pyridin-2-ylmethyl)amino)quinolin-2-yl)methylene)-2-(phenylamino)-3,5-dihydro-4H-imidazol-4-one]
Zn/Ca fluorescence ratio [4]: good
fluorescence in ion screening [4]: strong green fluorescence
selectivity towards Zn ion [4]: good selectivity
colour of the aqueous solution [6]: colour changes to yellow
fluorescence of the solution upon irradiation [6]: emits fluorescence
fluorescence of the aqueous solution [6]: emits no fluorescence
selectivity against Cd2+ [7]: weak

solubility in DMSO [5]: Soluble
solubility in alcohols [5]: Soluble
solubility in water [5]: moderately soluble
Compound: COc1cccc2ccc(/C=C3\N=C(Nc4ccccc4)NC3=O)nc12 [compound 32, (Z)-5-((8-methoxyquinolin-2-yl)methylene)-2-(phenylamino)-3,5-dihydro-4H-imidazol-4-onen]
colour of the aqueous solution [6]: colour changes to green
fluorescence of the solution upon irradiation [6]: emits fluorescence
fluorescence of the aqueous solution [6]: emits no fluorescence

solubility in DMSO [5]: soluble
solubility in THF [5]: Moderately soluble
solubility in the mixture of DMSO and water [5]: soluble
Compound: O=C1NC(Nc2ccccc2)=N/C1=C\c1ccc2ccc3cccnc3c2n1 [compound 34, (Z)-5-((1,10-phenanthrolin-2-yl)methylene)-2-(phenylamino)-3,5-dihydro-4H-imidazol-4-one]

maximum emitted wavelength [2]: around 555 nm
UV spectra extends over [3]: over 500 nm
UV spectra maximum wavelength [3]: around 476 nm
solubility in DMSO [5]: Soluble
solubility in alcohols [5]: Soluble
solubility in water [5]: moderately soluble
Compound: CN(C)CCN(C)c1cccc2ccc(/C=C3\N=C(Nc4ccccc4)NC3=O)nc12 [compound 30, (Z)-5-((8-((2-(dimethylamino)ethyl)(methyl)amino)quinolin-2-yl)methylene)-2-(phenylamino)-3,5-dihydro-4H-imidazol-4-one]
fluorescence in ion screening [4]: strong green fluorescence
fluorescence intensity in ion screening [4]: lower intensity
selectivity towards Zn ion [4]: strong selectivity
colour of the aqueous solution [6]: colour gets brighter
fluorescence of the solution upon irradiation [6]: emits fluorescence
fluorescence of the aqueous solution [6]: emits no fluorescence

solubility in DMSO [5]: soluble
solubility in THF [5]: Moderately soluble
solubility in the mixture of DMSO and water [5]: soluble
Compound: O=C1N=C(Nc2ccccc2)N/C1=C\c1ccc2ccc3ccc(/C=C4\NC(Nc5ccccc5)=NC4=O)nc3c2n1 [compound 35, (5Z,5′Z)-5,5′-((1,10-phenanthroline-2,9-diyl)bis(methanylylidene))bis(2-(phenylamino)-1,5-dihydro-4H-imidazol-4-one)]

UV spectra extends over [3]: over 500 nm
solubility in DMSO [5]: Soluble
solubility in alcohols [5]: Soluble
solubility in water [5]: Soluble
Compound: CN(C)c1cccc2ccc(/C=C3\N=C(Nc4ccccc4)NC3=O)nc12 [compound 29, (Z)-5-((8-(dimethylamino)quinolin-2-yl)methylene)-2-(phenylamino)-3,5-dihydro-4H-imidazol-4-one]
Zn/Ca fluorescence ratio [4]: excellent
fluorescence in ion screening [4]: strong green fluorescence
selectivity towards Zn ion [4]: strong selectivity
colour of the aqueous solution [6]: colour changes to greenish
fluorescence of the solution upon irradiation [6]: emits fluorescence
fluorescence of the aqueous solution [6]: emits no fluorescence

maximum emitted wavelength [2]: around 545 nm
UV spectra maximum wavelength [3]: around 472 nm
Stokes shift ([3]; between UV maximum and emission maximum): 73 nm
solubility in DMSO [5]: Soluble
solubility in alcohols [5]: Soluble
solubility in water [5]: moderately soluble
Compound: O=C1NC(Nc2ccccc2)=N/C1=C\c1ccc2cccc(O)c2n1 [compound 28, (Z)-5-((8-hydroxyquinolin-2-yl)methylene)-2-(phenylamino)-3,5-dihydro-4H-imidazol-4-one]
colour of the aqueous solution [6]: colour changes to yellow
fluorescence of the solution upon irradiation [6]: emits fluorescence
fluorescence of the aqueous solution [6]: emits no fluorescence
